Results on twelve compounds are retold here after patent US20150336977A1 (B.G. NEGEV TECHNOLOGIES AND APPLICATIONS LTD., priority 2013, published 2015).

Like-named read-outs stand apart in the source and are kept apart here.

The assay has as its system MCF-7 cells. As to the kind of experiment: MTT proliferation assay in estrogen-dependent MCF-7 breast cancer cells. Format: cell-based. To be noted: for estrogenic activity relative to natural compound 1: comparison with coumestrol (compound 1). On the procedure:
MCF-7 cells and MDA-MB-231 cells were maintained in Costar T75 flasks with Dulbeccos Modified Eagle Medium (DMEM) supplemented with 2 mM glutamine and 10% fetal bovine serum (Biological Industries Beit Haemek, LTD).
To deplete cells of estrogens, they were passaged for 1 week in phenol red-free DMEM supplemented with 10% estrogen-depleted calf serum (DCS/MEM) which was made by sequential treatment of calf serum with sulfatase and dextran-coated charcoal (Biological Industries Beit Haemek, LTD).
MCF-7 and MDA-MB-231 cells were plated in 96 well dishes (Costar) at approximately 5,000 cells/well and 2500 cells/well respectively in 100 ul medium. One day after plating (Day 0) 100 μl of the treatment media were added.
Final volume in each well was 200 μl. Each chemical was diluted to a final concentration of 10^−3M. At day 0 compounds 1 and 8b-8m (table 1) were diluted aside and 100 μl from each dilution were added to each well. The following dilution steps were performed: 2×10^−6M (4 μl of 10^−3M in 2 mL), 2×10^−7 M (200 μl of 2×10^−6M in 2 mL), 2×10^−8M (200 μl of 2×10^−7M in 2 mL) and 2×10^−9M (200 μl of 2×10^−8M in 2 mL).
Cell proliferation was quantified by colorimetric MTT assay. The use and validity of the MTT assay in MCF-7 cells is described by Martikainen et al.
Measurement of cell viability and proliferation were based on the reduction of tetrazolium salts using the MTT kit (Biological Industries Beit Haemek, LTD) according to the manufacturer instructions. The yellow tetrazolium MTT (3-(4,5-dimethylthiazolyl-2)-2,5-diphenyltetrazolium bromide) is reduced by metabolically active cells, in part by the action of dehydrogenase enzymes, to generate reducing equivalents such as NADH and NADPH. The resulting intracellular purple formazan can be solubilized and quantified by spectrophotometric means. The MTT Reagent yields low background absorbance values in the absence of cells. MTT assay was used to evaluate cell number in each well.

[1] abbreviates: Homo sapiens, MCF7, MCF-7 breast cancer cells, read-out: IC50 value.
[2] abbreviates: Homo sapiens, MCF7, cell proliferation effect on MCF-7 cell line (estrogen dependent cells), MTT, NA = Not Active, read-out: IC50.

Usually IC50 stands for the concentration that gives 50% inhibition. For `CCOC(=O)c1ccc2oc3c4ccc(O)cc4oc(=O)c3c2c1` [Compound 8k], the IC50 reads like this: under setting [1], 58 nM; under setting [2], 58 nM.
Turning to `O=c1oc2cc(O)ccc2c2oc3cc(O)c(O)cc3c12` [Compound 8c, 8-hydroxycoumestrol], the “estrogenic activity relative to natural compound 1” value is “at least one order of magnitude less active”.
Turning to `O=c1oc2cc(O)ccc2c2oc3cc(O)ccc3c12` [Compound 1, coumestrol], where the note is “cell proliferation effect on MCF-7 cell line (estrogen dependent cells), MTT, NA = Not Active, read-out: IC50”, the IC50 was 73 nM.
With `O=c1oc2cc(O)ccc2c2oc3ccc(C(F)(F)F)cc3c12` [Compound 8l, 3-trifluoromethylcoumestrol], the IC50 reads like this: under setting [1], 170 nM; under setting [2], 170 nM.
In the case of `CC(=O)Nc1ccc2c(c1)oc1c3ccc(O)cc3oc(=O)c21` [Compound 8g], the IC50 reads like this: under setting [1], 30 nM; under setting [2], 30 nM.
For `O=c1oc2cc(O)ccc2c2oc3ccc(F)cc3c12` [Compound 8j], under setting [2], the IC50 was determined as 220 nM.
As to `CC(=O)Nc1ccc2oc3c4ccc(O)cc4oc(=O)c3c2c1` [Compound 8h, 8-acetamidecoumestrol], the IC50 by setting is: under setting [1], under 1 nM; under setting [2], 9 nM.
With `O=c1oc2ccccc2c2oc3cc(O)ccc3c12` [Compound 8d, 3-hydroxycoumestn], the “estrogenic activity relative to natural compound 1” value was “at least one order of magnitude less active”. In addition, the “proliferative effect on the MCF-7 cells” value (ER-positive breast cancer line MCF-7, result in words) is reported as “did not showed any proliferative effect”. Besides, under setting [2], the IC50 was 568 nM.
In the case of `O=c1oc2ccccc2c2oc3ccccc3c12` [Compound 8b], the “estrogenic activity relative to natural compound 1” value is given as “at least one order of magnitude less active”.
On to `O=c1oc2cc(O)ccc2c2oc3ccc(Br)cc3c12` [Compound 8i], for which the IC50 was 107 nM under setting [1] and 107 nM under setting [2].
With `O=c1oc2cc(O)ccc2c2oc3ccc(O)cc3c12` [Compound 8f], the “estrogenic activity relative to natural compound 1” value is “at least one order of magnitude less active”.
`O=c1oc2cc(O)ccc2c2oc3ccc4ccccc4c3c12` [Compound 8m, napthocoumestrol]: the IC50 reads like this: under setting [1], 180 nM; under setting [2], 180 nM.
